One series addresses T1, Human plasmin (Homo sapiens, UniProt P00747).
T1 construct: Human plasmin (manufactured by Sekisui Diagnostics, LLC); purchased Sekisui Diagnostics, LLC
Put plainly: Enzyme selectivity evaluation test: plasmin. Type of series: biochemical. Here is the method: (§1) S-2288 (H-D-Ile-Pro-Arg-pNA.2HCl) was added as the substrate at a final concentration of 300 μmol/L. After progression of the reaction, the absorbance was measured at OD 405 nm.

In a further series the target is T2, human thrombin (Homo sapiens, UniProt P00734).
T2 construct: human thrombin (manufactured by Enzyme Research Laboratories); purchased Enzyme Research Laboratories
Put plainly: Enzyme selectivity evaluation test: thrombin. It counts as biochemical. On the procedure: S-2366 (pyroGlu-Pro-Arg-pNA.HCl) was added as the substrate at a final concentration of 300 μmol/L. After progression of the reaction, the absorbance was measured at OD 405 nm.

The target of another series is T3, Human kallikrein (Homo sapiens, UniProt P03952).
T3 construct: purchased Enzyme Research Laboratories
T3 sequence (P03952 391-638 limits assumed): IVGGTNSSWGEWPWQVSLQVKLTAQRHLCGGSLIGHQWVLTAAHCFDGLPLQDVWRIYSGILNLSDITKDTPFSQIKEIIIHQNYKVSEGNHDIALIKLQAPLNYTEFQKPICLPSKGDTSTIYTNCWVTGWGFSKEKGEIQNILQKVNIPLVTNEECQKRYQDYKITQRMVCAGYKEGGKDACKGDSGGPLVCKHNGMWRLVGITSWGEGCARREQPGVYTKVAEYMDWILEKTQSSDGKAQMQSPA
T3 sequence (P03952 20-390 partner limits assumed): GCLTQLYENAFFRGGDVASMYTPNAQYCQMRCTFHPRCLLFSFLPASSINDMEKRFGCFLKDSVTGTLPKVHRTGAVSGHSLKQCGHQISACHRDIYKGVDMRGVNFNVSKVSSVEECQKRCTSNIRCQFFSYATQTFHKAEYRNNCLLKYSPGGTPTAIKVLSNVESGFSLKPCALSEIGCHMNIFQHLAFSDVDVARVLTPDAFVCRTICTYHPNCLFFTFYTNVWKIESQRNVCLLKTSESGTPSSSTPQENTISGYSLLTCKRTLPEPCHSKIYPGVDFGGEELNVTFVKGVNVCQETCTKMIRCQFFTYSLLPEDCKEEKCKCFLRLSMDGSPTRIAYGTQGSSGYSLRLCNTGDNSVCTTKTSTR
Put plainly: Enzyme selectivity evaluation test: plasma kallikrein. It counts as biochemical. Here is the method: as §1

The target in series [1] is T4, Tissue Factor (TF):Factor VIIa (FVIIa) Complex (Homo sapiens, UniProt P08709).
T4 construct: Human FVIIa (manufactured by Enzyme Research Laboratories); purchased Enzyme Research Laboratories (FVIIa); R&D Systems, Inc. (TF)
T4 sequence (P08709 213-466 limits assumed): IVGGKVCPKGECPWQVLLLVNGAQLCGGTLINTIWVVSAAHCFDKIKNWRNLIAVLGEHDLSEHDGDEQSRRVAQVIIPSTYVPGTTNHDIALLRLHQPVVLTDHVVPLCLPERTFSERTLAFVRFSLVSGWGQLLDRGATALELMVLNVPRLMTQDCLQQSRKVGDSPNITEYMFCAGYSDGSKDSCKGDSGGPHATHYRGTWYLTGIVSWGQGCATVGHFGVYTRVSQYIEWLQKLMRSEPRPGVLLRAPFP
T4 sequence (P08709 61-212 partner limits assumed): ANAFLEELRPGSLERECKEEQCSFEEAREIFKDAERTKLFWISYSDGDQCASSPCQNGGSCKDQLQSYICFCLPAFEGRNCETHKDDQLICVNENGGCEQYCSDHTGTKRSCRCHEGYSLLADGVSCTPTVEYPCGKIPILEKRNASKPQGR
T4 sequence (P13726 33-251 partner limits assumed): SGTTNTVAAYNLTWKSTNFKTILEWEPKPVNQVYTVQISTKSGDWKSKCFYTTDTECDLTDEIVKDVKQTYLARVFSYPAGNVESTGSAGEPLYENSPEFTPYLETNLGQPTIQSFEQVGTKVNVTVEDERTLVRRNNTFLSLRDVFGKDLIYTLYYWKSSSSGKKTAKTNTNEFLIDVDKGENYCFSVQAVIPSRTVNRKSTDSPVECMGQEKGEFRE
The experiment in a line: Enzyme selectivity evaluation test: TF:FVIIa complex. It counts as biochemical. Here is the method: S-2288 (H-D-Ile-Pro-Arg-pNA.2HCl) (manufactured by Chromogenix) was added as the substrate at a final concentration of 300 μmol/L. After progression of the reaction, the absorbance was measured at OD 405 nm.

For a further series, the target named is T5, Human urokinase (Homo sapiens, UniProt P00749).
T5 construct: purchased Calbiochem
Put plainly: Enzyme selectivity evaluation test: urokinase. Type of series: biochemical. On the procedure:
S-2444 (pyroGlu-Gly-Arg-pNA.HCl) was added as the substrate at a final concentration of 300 μmol/L. After progression of the reaction, the absorbance was measured at OD 405 nm.

The target of another series is Human tryptase. The experiment in a line: Enzyme selectivity evaluation test: tryptase. It counts as biochemical. On the procedure: as §1
Another series concerns the target T6, Human FIXαβ (Homo sapiens, UniProt P00740).
T6 construct: 3) Factor IXa (FIXa); purchased Enzyme Research Laboratories
The experiment in a line: Enzyme selectivity evaluation test: FIXa. It counts as biochemical. Here is the method: SPECTROZYME® FIXa (D-Leu-Ph′Gly-Arg-pNA.2AcOH) (manufactured by American Diagnostica Inc.) was added as the substrate at a final concentration of 800 μmol/L. After progression of the reaction, the absorbance was measured at OD 405 nm. Change in OD in case of no addition of the test compound was defined as 100%, and the concentration at which a rise in OD value was reduced by 50% was calculated as […]

Another series has as its target T7, Human FXa (Homo sapiens, UniProt P00742).
T7 construct: 4) Factor Xa (FXa); purchased Enzyme Research Laboratories
The experiment in a line: Enzyme selectivity evaluation test: FXa. It counts as biochemical. On the procedure: S-2222 (Bz-Ile-Glu(γ-OR)-Gly-Arg-pNAHC1 (SEQ ID NO: 1), R═H (50%) and R═CH3 (50%)) (manufactured by Chromogenix) was added as the substrate at a final concentration of 150 μmol/L. After progression of the reaction, the absorbance was measured at OD 405 nm.

Another series deals with T8, Human FXIIa (Homo sapiens, UniProt P00748).
T8 construct: 5) Factor XIIa (FXIIa); purchased Enzyme Research Laboratories
T8 sequence (P00748 373-615 limits assumed): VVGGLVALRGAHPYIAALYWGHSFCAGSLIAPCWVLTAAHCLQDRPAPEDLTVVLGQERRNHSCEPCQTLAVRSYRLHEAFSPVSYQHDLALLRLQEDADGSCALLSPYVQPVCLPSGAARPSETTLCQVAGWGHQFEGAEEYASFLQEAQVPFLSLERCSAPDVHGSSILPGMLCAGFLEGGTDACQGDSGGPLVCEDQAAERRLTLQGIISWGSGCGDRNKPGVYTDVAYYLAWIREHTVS
T8 sequence (P00748 20-372 partner limits assumed): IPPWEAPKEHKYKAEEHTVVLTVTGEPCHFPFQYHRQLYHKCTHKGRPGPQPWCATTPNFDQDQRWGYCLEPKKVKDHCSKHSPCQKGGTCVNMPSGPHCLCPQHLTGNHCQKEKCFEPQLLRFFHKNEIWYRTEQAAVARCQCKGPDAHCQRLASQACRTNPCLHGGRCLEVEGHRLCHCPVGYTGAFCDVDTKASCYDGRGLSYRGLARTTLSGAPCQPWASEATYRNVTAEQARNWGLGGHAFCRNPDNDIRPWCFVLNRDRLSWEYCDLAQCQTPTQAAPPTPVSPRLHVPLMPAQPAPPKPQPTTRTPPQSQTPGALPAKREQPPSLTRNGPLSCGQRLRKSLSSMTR
The experiment in a line: Enzyme selectivity evaluation test: FXIIa. Type of series: biochemical. On the procedure:
as §1

A further series addresses Human FXIa (Homo sapiens, UniProt P03951). Put plainly: In vitro activated factor XI (FXIa) inhibition test. Type of series: biochemical. Also on record: purchased Enzyme Research Laboratories. Particulars: substrate S-2366, 37° C., 10 minutes; read-out: FXIa Inhibition activity IC50.
The next series relates to Cynomolgus monkey plasma. The experiment in a line: Species difference test: aPTT prolongation in plasma. It counts as biochemical. On the procedure:
(§2) The compound of Reference Example 2-6 dissolved in DMSO was added at final concentrations of 0.03 to 200 μmol/L to the plasma of each animal species prepared using 3.2% sodium citrate. The solution was incubated at 37° C. for 6 minutes. Then, an STA reagent Cephascreen (for aPTT assay; manufactured by Roche Diagnostics K.K.) was added thereto in an amount equal to the total amount of the plasma and the DMSO solution, and the mixture was further incubated for 4 minutes. Then, STA calcium chloride (manufactured by Roche Diagnostics K.K.) was added thereto in an amount equal to the total amount of the plasma and the DMSO solution, and the time required for coagulation was measured. The concentration at which the coagulation time was prolonged two times (EC2x) was calculated for each plasma.

The next series deals with Rat plasma. Described as above. It counts as biochemical. Here is the method: as §2
The next series has as its system Dog plasma. The description is as above. It counts as biochemical. On the procedure:
as §2

The test system of the next series is Rabbit plasma. The series is described as above. It counts as biochemical. Here is the method:
as §2

Another series has as its system human plasma. The description is as above. It counts as biochemical. On the procedure:
as §2

In the next series the test system is Mouse plasma. The series is described as above. It counts as biochemical. On the procedure:
as §2

The test system of series [2] is Rabbit nail bleeding models. The experiment in a line: Bleeding time evaluation test using rabbit nail bleeding model. Type of series: in vivo. Particulars: for Bleeding time: Experiment 2 (maximum 60 minutes), rabbit; for Bleeding time (fold-increase): Experiment 2, ratio to vehicle group average. Here is the method: Rabbit nail bleeding models were prepared by a modification of the report of Wong et al. (Wong P C. et al., J. Thromb. Haemost. 7: 1313-1320 (2009)). Male rabbits (JW, 1.5 to 3.5 kg) were anesthetized by the inhalation of isoflurane (ISOFLU®, manufactured by DS Pharma Animal Health Co., Ltd.) (introduced anesthesia: 4%, continuous anesthesia: 2 to 3%).
For the intravenous administration of a test drug or a vehicle, an indwelling needle was inserted to the auricular vein, and the test drug or the vehicle was promptly intravenously administered (0.67 mL/kg) and then continuously intravenously administered (1 mL/kg/hr). One hour after the start of administration, three posterior toenails were cut and dipped in saline heated to approximately 37° C., and the bleeding time was measured. The bleeding time was defined as a time from the cutting to the arrest of bleeding, and an average value from the three nails was used. The measurement time was 30 minutes at the maximum for experiment 1 and 60 minutes at the maximum for experiment 2. In each experiment, if bleeding for 30 minutes or 60 minutes or longer was confirmed, the bleeding time was regarded as 30 minutes or 60 minutes.

Setting [3] is: dose 0.5 + 0.75 mg/kg + mg/kg/h i.v.
[4] abbreviates: dose 1.5 + 2.25 mg/kg + mg/kg/h i.v.
The mark [5] stands for this setting: dose 5.0 + 7.5 mg/kg + mg/kg/h i.v.
Setting [6] is: dose 15 + 22..5 mg/kg + mg/kg/h i.v.

By IC50 is commonly meant the concentration needed to halve the response being measured.

Molecules are shown by their SMILES.

Sequence of Human FXIa (P03951 388-625 limits assumed): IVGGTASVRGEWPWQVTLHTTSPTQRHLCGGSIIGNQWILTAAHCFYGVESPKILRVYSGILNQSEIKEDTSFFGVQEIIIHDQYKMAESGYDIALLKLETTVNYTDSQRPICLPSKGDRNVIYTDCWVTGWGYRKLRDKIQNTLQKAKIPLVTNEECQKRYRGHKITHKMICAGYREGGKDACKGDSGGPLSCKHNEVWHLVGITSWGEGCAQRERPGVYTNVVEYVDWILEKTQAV
Sequence of Human FXIa (P03951 19-387 partner limits assumed): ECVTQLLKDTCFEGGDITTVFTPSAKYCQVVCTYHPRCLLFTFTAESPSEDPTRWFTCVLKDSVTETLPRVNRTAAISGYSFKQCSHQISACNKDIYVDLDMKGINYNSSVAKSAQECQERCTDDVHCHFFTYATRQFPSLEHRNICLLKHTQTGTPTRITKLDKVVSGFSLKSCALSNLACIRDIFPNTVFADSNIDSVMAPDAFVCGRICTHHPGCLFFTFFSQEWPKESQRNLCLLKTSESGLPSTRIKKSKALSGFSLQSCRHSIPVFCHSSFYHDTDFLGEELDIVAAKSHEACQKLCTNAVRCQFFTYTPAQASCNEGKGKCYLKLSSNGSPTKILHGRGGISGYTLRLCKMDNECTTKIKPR
T1 sequence (P00747 581-810 limits assumed): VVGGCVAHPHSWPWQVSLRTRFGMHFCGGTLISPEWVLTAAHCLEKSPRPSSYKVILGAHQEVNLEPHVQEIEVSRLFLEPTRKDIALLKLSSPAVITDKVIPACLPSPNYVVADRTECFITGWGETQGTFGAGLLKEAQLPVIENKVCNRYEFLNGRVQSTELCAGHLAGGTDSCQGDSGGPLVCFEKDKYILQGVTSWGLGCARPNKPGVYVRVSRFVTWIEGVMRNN
T1 sequence (P00747 97-580 partner limits assumed): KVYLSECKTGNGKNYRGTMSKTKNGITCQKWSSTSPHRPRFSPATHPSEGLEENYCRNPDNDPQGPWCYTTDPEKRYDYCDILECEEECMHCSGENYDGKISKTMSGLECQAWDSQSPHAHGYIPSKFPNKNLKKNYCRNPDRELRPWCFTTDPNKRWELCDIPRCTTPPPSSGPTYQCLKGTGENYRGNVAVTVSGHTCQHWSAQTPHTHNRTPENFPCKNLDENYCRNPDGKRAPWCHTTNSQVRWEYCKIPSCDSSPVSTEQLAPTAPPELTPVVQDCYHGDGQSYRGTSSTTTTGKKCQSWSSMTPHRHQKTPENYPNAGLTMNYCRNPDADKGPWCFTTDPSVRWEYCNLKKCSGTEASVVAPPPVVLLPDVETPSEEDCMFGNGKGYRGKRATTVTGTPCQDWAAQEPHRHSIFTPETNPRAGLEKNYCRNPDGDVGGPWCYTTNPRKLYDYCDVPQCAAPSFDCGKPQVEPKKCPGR
T6 sequence (P00740 227-461 limits assumed): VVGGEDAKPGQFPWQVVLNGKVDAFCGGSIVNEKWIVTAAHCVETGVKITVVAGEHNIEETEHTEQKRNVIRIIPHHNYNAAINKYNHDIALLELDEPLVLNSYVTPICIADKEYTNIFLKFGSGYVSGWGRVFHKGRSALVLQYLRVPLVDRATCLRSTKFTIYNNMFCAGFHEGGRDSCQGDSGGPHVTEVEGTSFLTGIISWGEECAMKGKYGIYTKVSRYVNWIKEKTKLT
T6 sequence (P00740 47-191 partner limits assumed): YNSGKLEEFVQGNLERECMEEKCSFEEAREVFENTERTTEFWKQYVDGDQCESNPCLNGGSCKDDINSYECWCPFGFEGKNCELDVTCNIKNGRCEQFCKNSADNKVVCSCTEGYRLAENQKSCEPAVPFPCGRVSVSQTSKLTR
T7 sequence (P00742 235-488 limits assumed): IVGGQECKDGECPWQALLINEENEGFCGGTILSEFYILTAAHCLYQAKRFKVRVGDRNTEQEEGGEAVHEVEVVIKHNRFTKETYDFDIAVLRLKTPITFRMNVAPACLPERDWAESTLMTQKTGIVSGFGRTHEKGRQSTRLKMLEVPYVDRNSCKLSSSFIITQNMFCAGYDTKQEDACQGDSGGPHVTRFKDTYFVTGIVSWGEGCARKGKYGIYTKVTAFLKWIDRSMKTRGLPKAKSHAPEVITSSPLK
T7 sequence (P00742 41-179 partner limits assumed): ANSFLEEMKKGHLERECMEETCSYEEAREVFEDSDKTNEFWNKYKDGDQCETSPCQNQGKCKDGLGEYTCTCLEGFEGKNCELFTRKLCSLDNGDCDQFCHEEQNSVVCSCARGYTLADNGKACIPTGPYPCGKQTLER

Regarding `Cl.N[C@H](CF)[C@H]1CC[C@H](C(=O)N2CC[C@@H](C3CCCCC3)[C@H]2C(=O)Nc2ccc3[nH]c(C(=O)O)cc3c2)CC1` [Reference Example 2-6, 5-{[(3S)-1-({trans-4-[(1S)-1-Amino-2-fluoroethyl]cyclohexyl}carbonyl)-3-cyclohexyl-L-prolyl]amino}-1H-indole-2-carboxylic acid hydrochloride], the half-inhibitory concentration (IC50) was above 10 µM on Human plasmin; above 10 µM on human thrombin; 0.43 µM at Human kallikrein; above 10 µM in [1]; above 10 µM against Human urokinase; above 10 µM on Human tryptase. For the same molecule, the IC50 at Human FIXαβ is above 10 µM; at Human FXa, above 10 µM; on Human FXIIa, above 10 µM; on Human FXIa it was 0.006 µM. Besides, the “EC2x (concentration at which the coagulation time was prolonged two times)” value is 2.6 µM in the series on Cynomolgus monkey plasma; above 200 µM in the series on Rat plasma; 34.4 µM in the series with Dog plasma; 34.2 µM in the series on Rabbit plasma; 0.6 µM in the series on human plasma; above 200 µM with Mouse plasma. The “Bleeding time” value amounted to 843 ± 270 s in [2] (setting [3]), 772 ± 234 s in series [2] (setting [4]), 768 ± 236 s in [2] (setting [5]) and 656 ± 198 s in series [2] (setting [6]). Also, the “Bleeding time (fold-increase)” value is recorded as 1.5 ± 0.5 fold-increase in series [2] (setting [3]), 1.3 ± 0.4 fold-increase in series [2] (setting [4]), 1.3 ± 0.4 fold-increase in series [2] (setting [5]) and 1.1 ± 0.3 fold-increase in series [2] (setting [6]).

Source of the values: patent US9718840B2, “Condensed 5-oxazolidinone derivative” (SUMITOMO DAINIPPON PHARMA CO., LTD., priority 2014, dated 2017).
